Data: publication PMC10009755, “Discovery and Characterization of BAY-805, a Potent and Selective Inhibitor of Ubiquitin-Specific Protease USP21” (Journal of Medicinal Chemistry, 2023)
Values after ≈ are worked out from the molar mass of the structure shown. Read-outs that look alike come from different tables or passages of the source.

Key:
USP21 [1] = molecular target: T1, USP21 (Homo sapiens, UniProt Q9UK80); assay: Thermal shift assay (TSA); format: binding; design: purchased Ubiquigent (DUBprofiler service); conditions: 100 μM compound
T1 sequence (Q9UK80 1-565): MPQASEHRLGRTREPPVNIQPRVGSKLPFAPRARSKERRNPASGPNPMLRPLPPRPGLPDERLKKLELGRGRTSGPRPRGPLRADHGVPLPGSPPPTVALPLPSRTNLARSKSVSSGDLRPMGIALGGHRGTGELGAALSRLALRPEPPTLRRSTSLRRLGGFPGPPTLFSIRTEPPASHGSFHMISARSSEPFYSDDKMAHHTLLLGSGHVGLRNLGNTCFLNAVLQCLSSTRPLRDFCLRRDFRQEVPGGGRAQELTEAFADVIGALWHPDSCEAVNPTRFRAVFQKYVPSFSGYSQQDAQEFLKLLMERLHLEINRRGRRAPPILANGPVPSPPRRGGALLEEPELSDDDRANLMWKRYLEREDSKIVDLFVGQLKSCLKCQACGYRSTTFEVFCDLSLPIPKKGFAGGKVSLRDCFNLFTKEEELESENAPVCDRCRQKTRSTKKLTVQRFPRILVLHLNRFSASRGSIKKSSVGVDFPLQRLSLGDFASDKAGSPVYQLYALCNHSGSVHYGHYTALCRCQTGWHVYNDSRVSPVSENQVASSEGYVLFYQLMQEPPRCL
Protocol: Experiments were carried out with the QuantStudio7 Flex Real-Time PCR system (Thermo Fisher Scientific) in a 384-well plate format with 5 μL of reaction volume. Melting curves were obtained at an USP21 protein concentration of 3.8 μM and 5xSYPRO Orange (Invitrogen) using a buffer containing 20 mM Tris, pH 7.5; 150 mM NaCl; 10% glycerol; and 1.0 mM TCEP. […] For binding experiments, compounds were added from 10 mM stock solution to a final concentration of 100 μM. As a control, 1% DMSO was used. Scans were measured from 25 to 95 °C at a scanning rate of 4 °C/min. All TSA data were analyzed using a Genedata Assay Analyzer.

USP21 [2] = molecular target: T1, USP21
Protocol: To this end, we developed a USP21 activity assay that is based on the deubiquitination of a STING-derived peptide (a USP21-specific substrate[17],[18]) by purified recombinant human full-length USP21 using time-resolved fluorescence resonance energy transfer (TR-FRET) technology (referred to as a homogeneous time-resolved fluorescence (HTRF)-assay, for details see the Supporting Information).[39]
All substrate and enzyme solutions were diluted in an assay buffer. […] Incubation time was 15–20 min at room temperature. […] The stop solution (DUB inhibitor PR619, Abcam) was prepared in 25 mM HEPES, pH 7.5 (Alfa Aesar) containing 0.01% BSA and then left for 10 min at room temperature before filtering with a 0.2 μM PES Membrane (Thermo Fisher). The reaction was stopped with the addition of 2 μL of 200 μM PR619. […] The plates were measured on the ViewLux in screening or PHERAstar FSX in compound profiling. […] The number of flashes per well was set to 3. All of the experimental data were plotted using Genedata analysis. The Z′-factor and S/B of the assay were >0.7 and ∼2, respectively.

log D measurement (HPLC) = format: physicochemical; conditions: for chromatographic logD: reverse-phase HPLC, pH 7.5, pH 7.5, HPLC method, read-out: logD7.5; for logD7.5: pH 7.5, HPLC method
Protocol: log D values at pH 7.5 were recorded using an indirect method for determining hydrophobicity constants by reverse-phase HPLC. A series of compounds with well-known log D values were used for calibration. Test compounds were injected into the same HPLC system. The lipophilicity of compounds was then assessed by comparison to the calibration curve.

USP2 = molecular target: T2, USP2 (Homo sapiens, UniProt O75604); assay: hUSP2 Ub-rhodamine 110 assay; format: biochemical; conditions: for IC50: arithmetic means of multiple measurements, read-out: IC50 hUSP2 Ub-Rhod
T2 construct: His tag
T2 sequence (O75604 259-605): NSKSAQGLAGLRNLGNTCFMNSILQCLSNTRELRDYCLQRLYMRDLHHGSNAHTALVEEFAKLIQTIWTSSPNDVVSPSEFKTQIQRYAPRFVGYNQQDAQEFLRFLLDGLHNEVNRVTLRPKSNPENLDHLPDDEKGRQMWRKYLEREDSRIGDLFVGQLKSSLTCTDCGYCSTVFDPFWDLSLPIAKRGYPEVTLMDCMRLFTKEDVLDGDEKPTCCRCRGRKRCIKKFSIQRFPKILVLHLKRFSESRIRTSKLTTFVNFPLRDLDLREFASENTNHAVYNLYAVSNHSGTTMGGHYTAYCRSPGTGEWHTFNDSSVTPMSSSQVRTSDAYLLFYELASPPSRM
Protocol: The final assay volume was 6 μL.

USP21 [3] = molecular target: T1, USP21; remark: listed apart in the source
Protocol: The final assay volume was 6 μL. […] First, 2 μL of 1 nM USP21 (or selectivity enzyme) solution was added to the compound plate and preincubated for 15–20 min at room temperature. […] The reaction was stopped by 50 mM citric acid in 25 mM HEPES, pH 7.5, containing 0.01% BSA. […] The USP21 and USP22 were measured with five flashes and USP2 and USP7 in fly mode.

[4] = molecular target: T3, C-terminal HiBiT-tagged USP21 (Homo sapiens, UniProt Q9UK80); assay: USP21 HiBiT CETSA; format: cell-based; conditions: 49 °C, HEK293T cells
T3 construct: expressed in transfected cells; host or cells: HEK293T
T3 sequence (Q9UK80 1-565): T1 sequence (Q9UK80 1-565)
Protocol: In particular, we utilized a HiBiT CETSA assay format[42],[43] conducted in intact HEK293T cells. Cells were transfected with USP21 fused to a small proluminescent NanoLuc HiBiT tag, which, when complemented with the Large BiT NanoLuc fragment, produces a quantifiable luminescence signal.
HEK293T cells were seeded in a six-well plate at 8 × 10^5 cells/well in 2 mL of DMEM supplemented with 10% FBS, penicillin (100 U/mL), and streptomycin (100 μg/mL) and transfected 4 h after seeding using an X-tremeGENE HP transfection reagent, following the manufacturer’s instructions with a total of 2 μg of plasmid constructs (C-terminally tagged USP21 HiBiT and empty pCDNA3.1 vector). […] The breathable paper adhesive film was then replaced with a PCR adhesive film, and cells were heated at indicated temperatures in an Applied Biosystems VeritiPro thermal cycler for 3 min, followed by 3 min incubation at rt before the addition of LgBiT solution (200 nM LgBiT, 2% NP-40, protease inhibitors (Roche cOmplete, ethylenediaminetetraacetic acid (EDTA)-free Protease Inhibitor) in OptiMEM no phenol red (Gibco)) to lyse cells.

Aqueous solubility = format: physicochemical; conditions: PBS pH 6.5, pH 6.5, PBS pH 6.5
Protocol: Test compounds were applied as DMSO solutions or directly from powder. After the addition of the buffer, solutions were shaken at rt for 24 h. The undissolved material was removed by filtration or centrifugation. The compound dissolved in the supernatant was quantified by HPLC-UV or HPLC-MS/MS.

NF-κB activation = assay: NF-κB reporter assay; format: cell-based; conditions: HEK293T cells, up to 10 μM
Protocol: Yang and colleagues reported that USP21 inhibition induces NF-κB activation by preventing deubiquitination of RIP1.[15] K63 ubiquitinated RIP1 is required for NF-κB activation, and thus USP21-mediated deubiquitination of RIP1 shuts down the NF-κB pathway.
Four hours after replating, cells were treated with compounds or DMSO (note: DMSO concentrations were kept consistent across all cells). Promega Dual-Luciferase Reporter Assay kit was then used to prepare samples for Firefly and Renilla signal measurement on a CLARIOstar microplate reader (BMG) 20 h after compound treatment. Relative luciferase units were calculated by normalizing the Firefly signal to the background Renilla signal, followed by normalization to DMSO controls of wild-type USP21.

in vitro = in vitro ADME; conditions: human, Caco-2, pH 7.2
Protocol: Caco-2 cells [purchased from the German Collection of Microorganisms and Cell Cultures (DSMZ)] were seeded at a density of 4.5 × 10^4 cells/well on 24-well insert plates [0.4 μm pore size, 0.3 cm^2 (Costar)] and grown for 13–15 days in DMEM medium supplemented with 10% fetal calf serum (FCS), 1% GlutaMAX (100×, Gibco), 100 U/mL penicillin, 100 μg/mL streptomycin (Gibco), and 1% nonessential amino acids (100×, Thermo Fischer Scientific). […] The medium was changed every 2–3 days.
The bidirectional transport assay for the evaluation of Caco-2 permeability was undertaken in 24-well insert plates using a robotic system (Tecan). Before the assay was run, the culture medium was replaced by a transport medium (FCS-free HEPES carbonate transport buffer pH 7.2). For the assessment of monolayer integrity, the transepithelial electrical resistance (TEER) was measured. Only monolayers with a TEER of at least 400 Ω·cm^2 were used. Test compounds were pre-dissolved in DMSO and added either to the apical or basolateral compartment at a final concentration of 2 μM. The evaluation was performed in triplicate. […] The efflux ratio (ER) basolateral (B) to apical (A) was calculated by dividing Papp B–A by Papp A–B.

SMILES	IC50 (USP21 [2]) [µM]	chromatographic logD (log D measurement (HPLC))	IC50 (USP2) [µM]	IC50 (USP21 [3]) [µM]	solubility at 24 h (Aqueous solubility) [µM]	also measured
O=C(CNC(=O)C1CCCC1)Nc1nnc(Cc2ccc([N+](=O)[O-])cc2)s1 [Compound 2, [O-][N+](=O)c1ccc(Cc2nnc(NC(=O)CNC(=O)C3CCCC3)s2)cc1]	> 25	2.1	> 25	> 25		ΔTm at 100 µM (USP21 [1]): 3.5 °C
COCC(NC(=O)C1CCCC1)C(=O)Nc1nnc(Cc2ccc([N+](=O)[O-])cc2)s1 (stereo not shown) [Compound 4, COCC(NC(=O)C1CCCC1)C(=O)Nc2nnc(Cc3ccc(cc3)[N+](=O)[O-])s2]		2.4				
COCC(NC(=O)c1ccccc1)C(=O)Nc1nnc(Cc2ccc([N+](=O)[O-])cc2)s1 (stereo not shown) [Compound 5, COCC(NC(=O)c1ccccc1)C(=O)Nc2nnc(Cc3ccc(cc3)[N+](=O)[O-])s2]	11.8	2.3	> 25	> 20.2		
COCC(NC(=O)C(C)C)C(=O)Nc1nnc(Cc2ccc([N+](=O)[O-])cc2)s1 (stereo not shown) [Compound 6, COCC(NC(=O)C(C)C)C(=O)Nc1nnc(Cc2ccc(cc2)[N+](=O)[O-])s1]	> 25	2	> 25	> 25		
COCC(NC(=O)C1CCCCC1)C(=O)Nc1nnc(Cc2ccc([N+](=O)[O-])cc2)s1 (stereo not shown) [Compound 7, COCC(NC(=O)C1CCCCC1)C(=O)Nc2nnc(Cc3ccc(cc3)[N+](=O)[O-])s2]		2.6	> 25			
COCC(NC(=O)C1CCOCC1)C(=O)Nc1nnc(Cc2ccc([N+](=O)[O-])cc2)s1 (stereo not shown) [Compound 8, COCC(NC(=O)C1CCOCC1)C(=O)Nc2nnc(Cc3ccc(cc3)[N+](=O)[O-])s2]	> 25	1.8	> 25	> 25		
COCC(NC(=O)C1(C)CCCCC1)C(=O)Nc1nnc(Cc2ccc([N+](=O)[O-])cc2)s1 (stereo not shown) [Compound 9, COCC(NC(=O)C1(C)CCCCC1)C(=O)Nc2nnc(Cc3ccc(cc3)[N+](=O)[O-])s2]		2.9	> 25			
COC[C@@H](NC(=O)C1(C)CCCCC1)C(=O)Nc1nnc(Cc2ccc([N+](=O)[O-])cc2)s1 [Compound 10, COC[C@@H](NC(=O)C1(C)CCCCC1)C(=O)Nc2nnc(Cc3ccc(cc3)[N+](=O)[O-])s2]	0.074		> 25			
COC[C@@H](NC(=O)C1(C)CCCCC1)C(=O)Nc1nnc(Cc2ccc(C#N)cc2)s1 [Compound 11, COC[C@@H](NC(=O)C1(C)CCCCC1)C(=O)Nc2nnc(Cc3ccc(cc3)C#N)s2]		2.7	> 25		126 (≈ 55.8 µg/mL)	cellular thermal stabilization of USP21 (in words) [4]: strong stabilization of USP21; logD7.5 (log D measurement (HPLC)): 2.69; selectivity against USP2 (USP2; vs USP21): > 780 fold; NF-κB activation (in words) (NF-κB activation): no NF-κB activation up to a concentration of 10 μM
COC[C@@H](NC(=O)C1(C)CCCCC1)C(=O)Nc1nc(C)c(Cc2ccc(C#N)cc2)s1 [Compound 12, COC[C@@H](NC(=O)C1(C)CCCCC1)C(=O)Nc2nc(C)c(Cc3ccc(cc3)C#N)s2]					19.4 (≈ 8.83 µg/mL)	
COC[C@@H](NC(=O)C1(C)CCCCC1)C(=O)Nc1sc(Cc2ccc(C#N)cc2)nc1C [Compound 13, COC[C@@H](NC(=O)C1(C)CCCCC1)C(=O)Nc2sc(Cc3ccc(cc3)C#N)nc2C]	0.065			> 25		
CCC1(C(=O)N[C@H](COC)C(=O)Nc2nnc(Cc3ccc(C#N)cc3)s2)CCCCC1 [Compound 14, CCC1(CCCCC1)C(=O)N[C@H](COC)C(=O)Nc2nnc(Cc3ccc(cc3)C#N)s2]		2.95			71 (≈ 32.4 µg/mL)	
COC[C@@H](NC(=O)C1(OC)CCCCC1)C(=O)Nc1nnc(Cc2ccc(C#N)cc2)s1 [Compound 15, COC[C@@H](NC(=O)C1(CCCCC1)OC)C(=O)Nc2nnc(Cc3ccc(cc3)C#N)s2]	21.5	2.59		> 25	181 (≈ 82.9 µg/mL)	
COC[C@@H](NC(=O)C1(C(F)F)CCCCC1)C(=O)Nc1nnc(Cc2ccc(C#N)cc2)s1 [Compound 16, COC[C@@H](NC(=O)C1(CCCCC1)C(F)F)C(=O)Nc2nnc(Cc3ccc(cc3)C#N)s2]		2.68			131 (≈ 62.5 µg/mL)	
COC[C@@H](NC(=O)C1(C(F)(F)F)CCCCC1)C(=O)Nc1nnc(Cc2ccc(C#N)cc2)s1 [Compound 17, COC[C@@H](NC(=O)C1(CCCCC1)C(F)(F)F)C(=O)Nc2nnc(Cc3ccc(cc3)C#N)s2]		2.95			10.4 (≈ 5.17 µg/mL)	logD7.5 (log D measurement (HPLC)): 3.0; Papp A→B at 2 h, 2 µM (in vitro; 2 μM, 2 h): 8.2 ×10⁻⁶ cm/s; efflux ratio at 2 h, 2 µM (in vitro; Papp B–A / Papp A–B, read-out: Caco-2 efflux ratio (ER)): 1.5
CC(C)(O)[C@@H](NC(=O)C1(C(F)(F)F)CCCCC1)C(=O)Nc1nnc(Cc2ccc(C#N)cc2)s1 [Compound 19, CC(C)(O)[C@@H](NC(=O)C1(CCCCC1)C(F)(F)F)C(=O)Nc2nnc(Cc3ccc(cc3)C#N)s2]		2.9			80.2 (≈ 40.9 µg/mL)	
